Results reported in patent US10080739B2, “Aryl imidazoles and their use as anti-cancer agents” (Aptose Biosciences Inc., priority 2003, dated 2018).

How the values were obtained:
PRK2 = target: T1, PRK2 (Homo sapiens, UniProt Q16513); assay: kinase profiler, PRK2; type: biochemical; conditions: 10 μM compound, 100 μM ATP, mean of % control
T1 construct: purchased Upstate Biotechnologies (kinase profiler service)
Description: (§1) Compound 45 was tested for its ability to function as a kinase inhibitor using the kinase profiler service from Upstate Biotechnologies. The general protocol employed is as follows: recombinant kinases were incubated with specific substrates, 10 mM MgAcetate, and [γ-^33P-ATP]. The reaction was initiated by the addition of MgATP mix. After incubation at room temperature for 40 minutes, the reaction was stopped by the addition of 5 μl of a 3% phosphoric acid solution. 10 μl of the reaction was then spotted on to a P30 filtermat and washed 3 times for 5 min. in 75 mM phosphoric acid and once in methanol prior to drying and scintillation counting. Each reaction was performed in duplicate with 100 μM ATP −/+10 μM compound 45. Results are presented in Table IV and are expressed as the mean of % control (no compound). PI 3-kinase-γ (PI3K-γ) activity was determined with the PIProfiler™ assay, which measures the binding of the GRP1 pleckstrin homology (PH) domain to PIP3, the product of PI3K acting on its physiological substrate PIP2.

PAR-1Bα = target: T2, PAR-1Bα (Homo sapiens, UniProt Q7KZI7); assay: kinase profiler, PAR-1Bα; type: biochemical; conditions: 10 μM compound, 100 μM ATP, mean of % control
T2 construct: purchased Upstate Biotechnologies (kinase profiler service)
Description: as §1

MEK1 = target: T3, MEK1 (Homo sapiens, UniProt Q02750); assay: kinase profiler, MEK1; type: biochemical; conditions: 10 μM compound, 100 μM ATP, mean of % control
T3 construct: purchased Upstate Biotechnologies (kinase profiler service)
Description: as §1

Tie2 = target: T4, Tie2 (Homo sapiens, UniProt Q02763); assay: kinase profiler, Tie2; type: biochemical; conditions: 10 μM compound, 100 μM ATP, mean of % control
T4 construct: purchased Upstate Biotechnologies (kinase profiler service)
Description: as §1

RAF = target: T5, RAF (Homo sapiens, UniProt P04049); assay: kinase profiler, RAF; type: biochemical; conditions: 10 μM compound, 100 μM ATP, mean of % control
T5 construct: purchased Upstate Biotechnologies (kinase profiler service)
Description: as §1

SAPK2a = target: T6, SAPK2a (Homo sapiens, UniProt Q16539); assay: kinase profiler, SAPK2a; type: biochemical; conditions: 10 μM compound, 100 μM ATP, mean of % control
T6 construct: purchased Upstate Biotechnologies (kinase profiler service)
Description: as §1

JNK1α1 = target: T7, JNK1α1 (Homo sapiens, UniProt P45983); assay: kinase profiler, JNK1α1; type: biochemical; conditions: 10 μM compound, 100 μM ATP, mean of % control
T7 construct: purchased Upstate Biotechnologies (kinase profiler service)
Description: as §1

MKK6 = target: T8, MKK6 (Homo sapiens, UniProt P52564); assay: kinase profiler, MKK6; type: biochemical; conditions: 10 μM compound, 100 μM ATP, mean of % control
T8 construct: purchased Upstate Biotechnologies (kinase profiler service)
Description: as §1

HT-29 colon cancer cells = assay: growth suppression of HT-29 colon cancer cells; type: cell-based; conditions: Homo sapiens
Met = target: T9, Met (Homo sapiens, UniProt P08581); assay: kinase profiler, Met; type: biochemical; conditions: 10 μM compound, 100 μM ATP, mean of % control
T9 construct: purchased Upstate Biotechnologies (kinase profiler service)
Description: as §1

IGF-1R = target: T10, IGF-1R (Homo sapiens, UniProt P08069); assay: kinase profiler, IGF-1R; type: biochemical; conditions: 10 μM compound, 100 μM ATP, mean of % control
T10 construct: purchased Upstate Biotechnologies (kinase profiler service)
Description: as §1

CDK1/cyclinB = target: T11, CDK1/cyclinB (Homo sapiens, UniProt P06493); assay: kinase profiler, CDK1/cyclinB; type: biochemical; conditions: 10 μM compound, 100 μM ATP, mean of % control
T11 construct: purchased Upstate Biotechnologies (kinase profiler service)
Description: as §1

PKA = target: T12, PKA (Homo sapiens, UniProt P17612); assay: kinase profiler, PKA; type: biochemical; conditions: 10 μM compound, 100 μM ATP, mean of % control
T12 construct: purchased Upstate Biotechnologies (kinase profiler service)
Description: as §1

PKBα = target: T13, PKBα (Homo sapiens, UniProt P31749); assay: kinase profiler, PKBα; type: biochemical; conditions: 10 μM compound, 100 μM ATP, mean of % control
T13 construct: purchased Upstate Biotechnologies (kinase profiler service)
Description: as §1

PI 3-kinase-γ (PI3K-γ) = target: T14, PI 3-kinase-γ (PI3K-γ) (Homo sapiens, UniProt P48736); assay: PIProfiler assay, PI3K-γ; type: biochemical; conditions: PI3K[…] (PI3Kγ), 10 μM compound, mean of % control
T14 construct: purchased Upstate Biotechnologies (kinase profiler / PIProfiler service)
Description: as §1

PI3K-α = target: T15, PI3K-α (Homo sapiens, UniProt P42336); assay: kinase profiler, PI3K-α; type: biochemical; conditions: 10 μM compound, mean of % control
T15 construct: purchased Upstate Biotechnologies (kinase profiler service)

Rsk1 = target: T16, Rsk1 (Homo sapiens, UniProt Q15418); assay: kinase profiler, Rsk1; type: biochemical; conditions: 10 μM compound, 100 μM ATP, mean of % control
T16 construct: purchased Upstate Biotechnologies (kinase profiler service)
Description: as §1

PDK1 = target: T17, PDK1 (Homo sapiens, UniProt O15530); assay: kinase profiler, PDK1; type: biochemical; conditions: 10 μM compound, 100 μM ATP, mean of % control
T17 construct: purchased Upstate Biotechnologies (kinase profiler service)
Description: as §1

[1] = system: A498 renal carcinoma cells; assay: morphological changes (vacuoles), A498; type: cell-based, human; conditions: treatment for 24 hours
From the text: These vacuoles are not formed in DMSO- or doxorubicin-treated cells. Moreover, the nuclear membrane is no longer evident in the phase-contrast images of cells treated with compound 45, even though the nucleus is still intact, as shown by DAPI staining.

Aurora-A = target: T18, Aurora-A (Homo sapiens, UniProt O14965); assay: kinase profiler, Aurora-A; type: biochemical; conditions: 10 μM compound, 100 μM ATP, mean of % control
T18 construct: purchased Upstate Biotechnologies (kinase profiler service)
Description: as §1

CK2 = target: T19, CK2 (Homo sapiens, UniProt P68400); assay: kinase profiler, CK2; type: biochemical; conditions: 10 μM compound, 100 μM ATP, mean of % control
T19 construct: purchased Upstate Biotechnologies (kinase profiler service)
Description: as §1

Abl = target: T20, Abl (Homo sapiens, UniProt P00519); assay: kinase profiler, Abl; type: biochemical; conditions: 10 μM compound, 100 μM ATP, mean of % control
T20 construct: purchased Upstate Biotechnologies (kinase profiler service)
Description: as §1

MST2 = target: T21, MST2 (Homo sapiens, UniProt Q13188); assay: kinase profiler, MST2; type: biochemical; conditions: 10 μM compound, 100 μM ATP, mean of % control
T21 construct: purchased Upstate Biotechnologies (kinase profiler service)
Description: as §1

ROCK-II = target: T22, ROCK-II (Homo sapiens, UniProt O75116); assay: kinase profiler, ROCK-II; type: biochemical; conditions: 10 μM compound, 100 μM ATP, mean of % control
T22 construct: purchased Upstate Biotechnologies (kinase profiler service)
Description: as §1

ErbB4 = target: T23, ErbB4 (Homo sapiens, UniProt Q15303); assay: kinase profiler, ErbB4; type: biochemical; conditions: 10 μM compound, 100 μM ATP, mean of % control
T23 construct: purchased Upstate Biotechnologies (kinase profiler service)
Description: as §1

[2] = system: human colon carcinoma cells (HT-29); assay: XTT cell proliferation assay, HT-29 cells, 48 h; type: cell-based; conditions: read-out: % Survival
Description: Selected compounds of Formula I were tested for anti-cancer activity in vitro using a human colon carcinoma cells (HT-29) and human non-small cell lung cancer cells (H460). The cells were maintained in α-MEM medium (Wisent, St-Bruno, Qc) supplemented with 10% FBS, and grown at 37° C. in an atmosphere of 5% CO2. Cells were transferred onto 150 mm tissue culture plates and grown until sub-confluency (70-80%) prior to their use.
The anti-cancer activity in vitro was evaluated by a cell proliferation assay based on the ability of live cells to reduce the tetrazolium salt XTT to orange coloured compounds of formazan (XTT cell proliferation kit II, Roche Applied Science, Montreal, QC).
Approximately 4×10^3 colon cancer cells (HT-29) or 2×10^3 non-small cell lung cancer cells (NCI-H460) in 100 μl of complete culture medium were plated onto 96-well microtiter plates and incubated overnight at 37° C. The medium was then removed by inverting the plate and patting on a sterile absorbent cloth. Fifty μl of medium containing the test compound at either 25 or 100 μM, were added to the wells containing cells and incubated at 37° C. in an atmosphere of 5% CO2 for 48 h. Following incubation, 25 μl of an XTT reaction mixture (XTT at a final concentration of 0.3 mg/ml) were added to each well and the plates were incubated for a further 4 h. The absorbance of each sample was then determined at a wavelength of 490 nm/650 nm as reference. Each compound was tested in duplicate and the results are reported as averages.

T13 sequence (P31749 whole entry): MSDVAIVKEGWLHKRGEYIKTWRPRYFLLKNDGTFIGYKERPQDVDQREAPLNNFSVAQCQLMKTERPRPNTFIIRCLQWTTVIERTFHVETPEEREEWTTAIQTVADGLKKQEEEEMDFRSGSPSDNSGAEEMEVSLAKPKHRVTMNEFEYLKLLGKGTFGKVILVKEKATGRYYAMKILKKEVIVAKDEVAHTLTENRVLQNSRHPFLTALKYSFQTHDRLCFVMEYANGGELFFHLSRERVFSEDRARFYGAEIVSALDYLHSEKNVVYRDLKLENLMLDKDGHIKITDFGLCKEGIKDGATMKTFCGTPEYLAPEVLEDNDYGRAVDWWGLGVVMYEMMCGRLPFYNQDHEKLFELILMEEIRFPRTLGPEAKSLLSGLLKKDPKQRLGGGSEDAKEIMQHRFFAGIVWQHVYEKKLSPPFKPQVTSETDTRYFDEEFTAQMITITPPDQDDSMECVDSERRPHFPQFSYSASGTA
T17 sequence (O15530 whole entry): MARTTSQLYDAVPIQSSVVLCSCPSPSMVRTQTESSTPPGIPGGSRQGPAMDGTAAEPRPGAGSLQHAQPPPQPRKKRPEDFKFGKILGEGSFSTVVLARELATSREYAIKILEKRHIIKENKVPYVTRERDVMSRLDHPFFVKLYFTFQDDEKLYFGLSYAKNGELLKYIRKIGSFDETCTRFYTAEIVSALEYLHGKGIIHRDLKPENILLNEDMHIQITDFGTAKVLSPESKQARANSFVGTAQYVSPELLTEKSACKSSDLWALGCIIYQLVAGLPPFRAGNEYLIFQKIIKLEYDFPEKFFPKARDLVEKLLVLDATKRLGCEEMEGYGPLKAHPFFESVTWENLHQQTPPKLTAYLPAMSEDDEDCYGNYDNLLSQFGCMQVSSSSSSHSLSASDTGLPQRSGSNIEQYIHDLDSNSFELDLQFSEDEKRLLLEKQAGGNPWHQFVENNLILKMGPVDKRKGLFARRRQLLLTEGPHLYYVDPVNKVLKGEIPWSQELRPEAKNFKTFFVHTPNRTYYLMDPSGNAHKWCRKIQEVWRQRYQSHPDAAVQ
T11 sequence (P06493 whole entry): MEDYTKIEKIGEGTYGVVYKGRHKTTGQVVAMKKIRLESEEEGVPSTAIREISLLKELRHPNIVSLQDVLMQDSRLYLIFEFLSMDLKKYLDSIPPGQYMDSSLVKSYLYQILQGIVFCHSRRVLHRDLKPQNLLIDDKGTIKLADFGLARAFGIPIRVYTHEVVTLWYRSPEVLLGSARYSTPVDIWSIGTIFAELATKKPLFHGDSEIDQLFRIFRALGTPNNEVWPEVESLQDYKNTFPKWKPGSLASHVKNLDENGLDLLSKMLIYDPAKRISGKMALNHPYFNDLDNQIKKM
T11 sequence (P14635 whole entry partner): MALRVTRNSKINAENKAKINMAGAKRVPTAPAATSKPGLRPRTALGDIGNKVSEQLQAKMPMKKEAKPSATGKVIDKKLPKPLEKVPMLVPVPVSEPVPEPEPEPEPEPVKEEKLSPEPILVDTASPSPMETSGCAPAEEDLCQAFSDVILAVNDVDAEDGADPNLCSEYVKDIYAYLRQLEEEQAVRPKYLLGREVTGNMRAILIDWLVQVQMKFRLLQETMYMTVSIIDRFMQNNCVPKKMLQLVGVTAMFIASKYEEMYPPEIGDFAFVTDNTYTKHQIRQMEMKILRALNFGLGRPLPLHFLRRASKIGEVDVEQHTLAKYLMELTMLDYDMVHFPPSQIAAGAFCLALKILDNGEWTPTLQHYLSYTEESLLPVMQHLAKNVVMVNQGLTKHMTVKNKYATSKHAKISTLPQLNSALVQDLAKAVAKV
T19 sequence (P68400 whole entry): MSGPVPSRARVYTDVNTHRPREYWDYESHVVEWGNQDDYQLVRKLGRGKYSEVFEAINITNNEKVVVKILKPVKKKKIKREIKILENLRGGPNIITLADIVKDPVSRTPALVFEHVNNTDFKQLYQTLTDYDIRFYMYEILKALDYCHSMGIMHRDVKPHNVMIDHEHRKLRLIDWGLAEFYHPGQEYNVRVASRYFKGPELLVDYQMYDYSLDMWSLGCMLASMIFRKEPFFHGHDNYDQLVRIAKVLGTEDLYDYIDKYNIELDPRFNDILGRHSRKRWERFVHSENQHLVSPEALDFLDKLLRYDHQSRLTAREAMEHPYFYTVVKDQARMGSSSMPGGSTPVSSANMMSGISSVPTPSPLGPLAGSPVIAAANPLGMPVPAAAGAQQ
T19 sequence (P67870 whole entry partner): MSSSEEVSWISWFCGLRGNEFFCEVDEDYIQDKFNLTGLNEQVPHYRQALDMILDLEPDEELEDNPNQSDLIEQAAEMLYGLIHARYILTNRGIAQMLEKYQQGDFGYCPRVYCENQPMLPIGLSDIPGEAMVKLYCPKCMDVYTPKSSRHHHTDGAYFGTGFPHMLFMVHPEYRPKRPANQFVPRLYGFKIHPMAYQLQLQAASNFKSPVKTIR
T15 sequence (P42336 whole entry): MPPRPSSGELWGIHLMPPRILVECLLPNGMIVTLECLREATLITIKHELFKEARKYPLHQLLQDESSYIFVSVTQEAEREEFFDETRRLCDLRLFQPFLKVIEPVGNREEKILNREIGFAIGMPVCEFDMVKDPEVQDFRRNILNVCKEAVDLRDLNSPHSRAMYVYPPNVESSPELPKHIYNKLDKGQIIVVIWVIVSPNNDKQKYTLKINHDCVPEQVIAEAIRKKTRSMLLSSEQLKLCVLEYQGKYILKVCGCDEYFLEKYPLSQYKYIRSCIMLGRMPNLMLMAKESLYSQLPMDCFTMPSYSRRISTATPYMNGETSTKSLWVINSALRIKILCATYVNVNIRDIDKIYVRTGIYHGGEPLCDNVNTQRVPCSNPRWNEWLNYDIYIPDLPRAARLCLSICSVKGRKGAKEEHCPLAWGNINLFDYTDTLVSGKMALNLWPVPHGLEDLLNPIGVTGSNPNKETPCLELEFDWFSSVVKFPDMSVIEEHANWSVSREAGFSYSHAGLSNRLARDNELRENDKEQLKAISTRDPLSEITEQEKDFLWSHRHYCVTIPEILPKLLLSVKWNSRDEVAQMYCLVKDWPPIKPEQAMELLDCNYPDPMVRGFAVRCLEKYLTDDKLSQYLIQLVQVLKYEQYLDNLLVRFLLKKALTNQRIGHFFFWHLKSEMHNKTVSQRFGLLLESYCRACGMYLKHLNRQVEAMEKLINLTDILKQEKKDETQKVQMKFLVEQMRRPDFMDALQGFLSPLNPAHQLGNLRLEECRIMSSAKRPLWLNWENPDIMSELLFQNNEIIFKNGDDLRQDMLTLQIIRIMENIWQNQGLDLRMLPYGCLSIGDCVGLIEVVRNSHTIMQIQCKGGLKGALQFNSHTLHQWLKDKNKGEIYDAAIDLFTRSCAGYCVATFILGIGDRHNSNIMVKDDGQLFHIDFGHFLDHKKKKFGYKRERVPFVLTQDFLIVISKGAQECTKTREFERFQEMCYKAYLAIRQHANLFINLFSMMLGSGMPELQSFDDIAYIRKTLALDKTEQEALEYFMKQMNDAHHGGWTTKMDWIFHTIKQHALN
T15 sequence (P27986 whole entry partner): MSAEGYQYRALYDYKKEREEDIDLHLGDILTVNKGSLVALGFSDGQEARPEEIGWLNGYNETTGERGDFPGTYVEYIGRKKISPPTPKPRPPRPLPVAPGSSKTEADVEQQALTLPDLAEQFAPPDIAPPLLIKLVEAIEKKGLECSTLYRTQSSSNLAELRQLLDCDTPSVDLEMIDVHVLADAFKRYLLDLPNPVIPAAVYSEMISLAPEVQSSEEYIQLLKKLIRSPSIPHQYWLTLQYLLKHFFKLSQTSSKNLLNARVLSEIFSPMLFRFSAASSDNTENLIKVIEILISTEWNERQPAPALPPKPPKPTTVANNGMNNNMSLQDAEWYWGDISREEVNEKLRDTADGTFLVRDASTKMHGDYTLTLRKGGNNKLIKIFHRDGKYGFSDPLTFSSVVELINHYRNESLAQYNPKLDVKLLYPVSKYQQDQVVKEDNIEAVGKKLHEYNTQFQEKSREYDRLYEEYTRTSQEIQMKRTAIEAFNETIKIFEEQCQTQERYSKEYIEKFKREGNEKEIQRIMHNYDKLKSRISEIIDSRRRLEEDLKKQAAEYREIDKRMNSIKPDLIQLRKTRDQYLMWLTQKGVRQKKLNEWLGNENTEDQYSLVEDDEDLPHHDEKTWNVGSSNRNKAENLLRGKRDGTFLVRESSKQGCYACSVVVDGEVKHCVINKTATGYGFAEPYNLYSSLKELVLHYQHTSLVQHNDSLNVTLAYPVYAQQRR
T7 sequence (P45983 1-384 isoform P45983-2): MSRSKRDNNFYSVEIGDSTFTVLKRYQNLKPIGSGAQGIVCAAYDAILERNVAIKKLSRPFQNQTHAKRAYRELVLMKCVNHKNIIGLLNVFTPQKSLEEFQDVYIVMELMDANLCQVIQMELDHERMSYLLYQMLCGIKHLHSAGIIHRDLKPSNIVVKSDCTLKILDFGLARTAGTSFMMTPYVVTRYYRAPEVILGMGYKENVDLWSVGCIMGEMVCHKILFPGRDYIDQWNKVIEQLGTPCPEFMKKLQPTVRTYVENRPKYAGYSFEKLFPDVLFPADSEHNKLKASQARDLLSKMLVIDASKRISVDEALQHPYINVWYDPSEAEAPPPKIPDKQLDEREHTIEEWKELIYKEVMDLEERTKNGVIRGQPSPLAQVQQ
T3 sequence (Q02750 whole entry): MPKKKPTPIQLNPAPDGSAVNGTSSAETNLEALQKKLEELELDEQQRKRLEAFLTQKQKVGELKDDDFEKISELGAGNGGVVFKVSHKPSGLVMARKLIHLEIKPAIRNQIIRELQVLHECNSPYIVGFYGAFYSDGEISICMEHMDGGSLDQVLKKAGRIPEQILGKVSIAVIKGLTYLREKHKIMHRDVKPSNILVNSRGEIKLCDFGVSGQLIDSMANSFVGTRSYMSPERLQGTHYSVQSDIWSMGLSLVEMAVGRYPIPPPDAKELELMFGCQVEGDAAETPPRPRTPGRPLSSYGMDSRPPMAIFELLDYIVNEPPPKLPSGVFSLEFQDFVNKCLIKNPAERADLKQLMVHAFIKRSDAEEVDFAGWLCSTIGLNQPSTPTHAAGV

Brc1ccc2[nH]cc(-c3nc4c5ccccc5c5ccccc5c4[nH]3)c2c1 [Compound 45]
activity at 10 µM (PRK2): 83%
activity at 10 µM (PAR-1Bα): 88%
activity at 10 µM (MEK1): 88%
activity at 10 µM (Tie2): 109%
activity at 10 µM (RAF): 100%
activity at 10 µM (SAPK2a): 62%
activity at 10 µM (JNK1α1): 85%
activity at 10 µM (MKK6): 86%
GI50 (HT-29 colon cancer cells): 2.6 µM
activity at 10 µM (Met): 129%
activity at 10 µM (IGF-1R): 80%
activity at 10 µM (CDK1/cyclinB): 156%
activity at 10 µM (PKA): 83%
activity at 10 µM (PKBα): 95%
activity at 10 µM (PI 3-kinase-γ (PI3K-γ)): 22%
activity at 10 µM (PI3K-α): 30%
activity at 10 µM (Rsk1): 183%
activity at 10 µM (PDK1): 106%
formation of vacuoles [1]: formation of large vacuoles within the cytoplasm
activity at 10 µM (Aurora-A): 54%
activity at 10 µM (CK2): 91%
activity at 10 µM (Abl): 107%
activity at 10 µM (MST2): 77%
activity at 10 µM (ROCK-II): 86%
activity at 10 µM (ErbB4): 73%
viability at 25 µM ([2]; 25 μM compound): 88.9%
viability at 100 µM ([2]; 100 μM compound): 35%
